# Test results published in PubChem BioAssay AID1963432 (Molecular Pharmacology Branch, DTP, NCI, 2024).
# “And” between values parts separate entries of the source, which are not always exact repeats. Equal values may be shown once.
# System: SYO-1 complex spheroid growth, percent test/control
# Assay: Anticancer human tumor SYO-1 cell line growth inhibition [Asc];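 further: compound exposure lasted 7 days after spheroids grew 3 days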;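 on viability, T/C: 100% = DMSO vehicle control viability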
# Conditions: for viability, T/C: stronger effect = lower value
# Summary of the method: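 Complex spheroids combining tumor cells with HUVEC endothelial cells and human MSCs, at 37 degrees C, 5% CO2; agents tested alone or combined, half-log dilutions from at or near clinical Cmax, or 10 microM if Cmax unknown.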
# [1] = curve of first compound, second compound 0.0316 µM
# [2] = curve of first compound, second compound 0.1 µM
# [3] = curve of first compound, second compound 0.316 µM
# [4] = curve of first compound, second compound 1 µM
# [5] = second compound 0.0316 µM, first compound 0.0316 µM
# [6] = second compound 0.0316 µM, first compound 0.1 µM
# [7] = second compound 0.0316 µM, first compound 0.316 µM
# [8] = second compound 0.0316 µM, first compound 1 µM
# [9] = second compound 0.1 µM, first compound 0.0316 µM
# [10] = second compound 0.1 µM, first compound 0.1 µM
# [11] = second compound 0.1 µM, first compound 0.316 µM
# [12] = second compound 0.1 µM, first compound 1 µM
# [13] = second compound 0.316 µM, first compound 0.0316 µM
# [14] = second compound 0.316 µM, first compound 0.1 µM
# [15] = second compound 0.316 µM, first compound 0.316 µM
# [16] = second compound 0.316 µM, first compound 1 µM
# [17] = second compound 1 µM, first compound 0.0316 µM
# [18] = second compound 1 µM, first compound 0.1 µM
# [19] = second compound 1 µM, first compound 0.316 µM
# [20] = second compound 1 µM, first compound 1 µM
smiles,measurement,setting,value
C=CC(=O)N1CCN(c2nc(=O)n(-c3c(C)ccnc3C(C)C)c3nc(-c4c(O)cccc4F)c(F)cc23)C(C)C1 (stereo unspecified) + CCN1C(C(=O)NC23CCC(C(=O)O)(CC2)CC3)C(c2cccc(Cl)c2F)C2(C(=O)Nc3cc(Cl)ccc32)C12CCCCC2,IC50,"curve of first compound, second compound 0.00949 µM",> 10000 nM
same,IC50,"curve of first compound, second compound 0.03 µM",> 10000 nM
same,IC50,"curve of first compound, second compound 0.0949 µM",> 10000 nM
same,IC50,"curve of first compound, second compound 0.3 µM",< 31.6 nM
same,IC50,"curve of first compound, second compound 0.949 µM",< 31.6 nM
same,IC50,"curve of first compound, second compound 3 µM",< 31.6 nM
same,"viability, T/C","second compound 0.00949 µM, first compound 0.0316 µM",101%
same,"viability, T/C","second compound 0.00949 µM, first compound 0.1 µM",104%
same,"viability, T/C","second compound 0.00949 µM, first compound 0.316 µM",103%
same,"viability, T/C","second compound 0.00949 µM, first compound 1 µM",103%
same,"viability, T/C","second compound 0.00949 µM, first compound 3.16 µM",92%
same,"viability, T/C","second compound 0.00949 µM, first compound 10 µM",89.1%
same,"viability, T/C","second compound 0.03 µM, first compound 0.0316 µM",98%
same,"viability, T/C","second compound 0.03 µM, first compound 0.1 µM",94.7%
same,"viability, T/C","second compound 0.03 µM, first compound 0.316 µM",96.7%
same,"viability, T/C","second compound 0.03 µM, first compound 1 µM",103%
same,"viability, T/C","second compound 0.03 µM, first compound 3.16 µM",97.6%
same,"viability, T/C","second compound 0.03 µM, first compound 10 µM",81.8%
same,"viability, T/C","second compound 0.0949 µM, first compound 0.0316 µM",78.5%
same,"viability, T/C","second compound 0.0949 µM, first compound 0.1 µM",84%
same,"viability, T/C","second compound 0.0949 µM, first compound 0.316 µM",76.7%
same,"viability, T/C","second compound 0.0949 µM, first compound 1 µM",79.4%
same,"viability, T/C","second compound 0.0949 µM, first compound 3.16 µM",75.9%
same,"viability, T/C","second compound 0.0949 µM, first compound 10 µM",56.2%
same,"viability, T/C","second compound 0.3 µM, first compound 0.0316 µM",29.8%
same,"viability, T/C","second compound 0.3 µM, first compound 0.1 µM",25.3%
same,"viability, T/C","second compound 0.3 µM, first compound 0.316 µM",25.2%
same,"viability, T/C","second compound 0.3 µM, first compound 1 µM",20.8%
same,"viability, T/C","second compound 0.3 µM, first compound 3.16 µM",21.3%
same,"viability, T/C","second compound 0.3 µM, first compound 10 µM",12.2%
same,"viability, T/C","second compound 0.949 µM, first compound 0.0316 µM",3.03%
same,"viability, T/C","second compound 0.949 µM, first compound 0.1 µM",4.04%
same,"viability, T/C","second compound 0.949 µM, first compound 0.316 µM",2.34%
same,"viability, T/C","second compound 0.949 µM, first compound 1 µM",2.88%
same,"viability, T/C","second compound 0.949 µM, first compound 3.16 µM",2.48%
same,"viability, T/C","second compound 0.949 µM, first compound 10 µM",2.88%
same,"viability, T/C","second compound 3 µM, first compound 0.0316 µM",1.34%
same,"viability, T/C","second compound 3 µM, first compound 0.1 µM",1.23%
same,"viability, T/C","second compound 3 µM, first compound 0.316 µM",1.3%
same,"viability, T/C","second compound 3 µM, first compound 1 µM",1.29%
same,"viability, T/C","second compound 3 µM, first compound 3.16 µM",1.12%
same,"viability, T/C","second compound 3 µM, first compound 10 µM",1.29%
O=C(c1cc(Cc2n[nH]c(=O)c3ccccc23)ccc1F)N1CCN(C(=O)C2CC2)CC1 + Cc1c(S(C)(=O)=O)c(-c2cc(F)cc(N3CCN(c4ccc(NS(=O)(=O)c5ccc(NC(CCN6CCC(C(=O)OCCCP(=O)(O)O)CC6)CSc6ccccc6)c(S(=O)(=O)C(F)(F)F)c5)cc4)CC3)c2)c(-c2ccc(Cl)cc2)n1C(C)C,IC50,[1],1840 nM
same,IC50,[2],1850 nM
same,IC50,[3],1630 nM
same,IC50,[4],1640 nM
same,IC50,"curve of first compound, second compound 3.16 µM",1170 nM
same,IC50,"curve of first compound, second compound 10 µM",613 nM
same,"viability, T/C",[5],106%
same,"viability, T/C",[6],90.1%
same,"viability, T/C",[7],96.5%
same,"viability, T/C",[8],85.1%
same,"viability, T/C","second compound 0.0316 µM, first compound 3.16 µM",18.6%
same,"viability, T/C","second compound 0.0316 µM, first compound 10 µM",4.21%
same,"viability, T/C",[9],105%
same,"viability, T/C",[10],93.3%
same,"viability, T/C",[11],89.7%
same,"viability, T/C",[12],92.5%
same,"viability, T/C","second compound 0.1 µM, first compound 3.16 µM",13.1%
same,"viability, T/C","second compound 0.1 µM, first compound 10 µM",3.38%
same,"viability, T/C",[13],95.6%
same,"viability, T/C",[14],92%
same,"viability, T/C",[15],95.7%
same,"viability, T/C",[16],82.2%
same,"viability, T/C","second compound 0.316 µM, first compound 3.16 µM",6.13%
same,"viability, T/C","second compound 0.316 µM, first compound 10 µM",2.3%
same,"viability, T/C",[17],89.7%
same,"viability, T/C",[18],108%
same,"viability, T/C",[19],87.2%
same,"viability, T/C",[20],84.9%
same,"viability, T/C","second compound 1 µM, first compound 3.16 µM",4.13%
same,"viability, T/C","second compound 1 µM, first compound 10 µM",1.66%
same,"viability, T/C","second compound 3.16 µM, first compound 0.0316 µM",93.4%
same,"viability, T/C","second compound 3.16 µM, first compound 0.1 µM",88.7%
same,"viability, T/C","second compound 3.16 µM, first compound 0.316 µM",83.9%
same,"viability, T/C","second compound 3.16 µM, first compound 1 µM",57.7%
same,"viability, T/C","second compound 3.16 µM, first compound 3.16 µM",2.51%
same,"viability, T/C","second compound 3.16 µM, first compound 10 µM",1.72%
same,"viability, T/C","second compound 10 µM, first compound 0.0316 µM",83.7%
same,"viability, T/C","second compound 10 µM, first compound 0.1 µM",81.1%
same,"viability, T/C","second compound 10 µM, first compound 0.316 µM",69.8%
same,"viability, T/C","second compound 10 µM, first compound 1 µM",35.9%
same,"viability, T/C","second compound 10 µM, first compound 3.16 µM",2.29%
same,"viability, T/C","second compound 10 µM, first compound 10 µM",2.09%
O=C(c1ccc(F)c(F)c1Nc1ccc(I)cc1F)N1CC(O)([C@@H]2CCCCN2)C1 + CNC(C)C(=O)NC1CN(S(=O)(=O)c2cccc(S(=O)(=O)N3CCC4CCC(C(=O)NC(c5ccccc5)c5ccccc5)N4C(=O)C(NC(=O)C(C)NC)C3)c2)CCC2CCC(C(=O)NC(c3ccccc3)c3ccccc3)N2C1=O,IC50,"curve of first compound, second compound 0.01 µM",> 1000 nM
same,IC50,[1],> 1000 nM
same,IC50,[2],> 1000 nM
same,IC50,[3],> 1000 nM
same,IC50,[4],> 1000 nM
same,"viability, T/C","second compound 0.01 µM, first compound 0.00316 µM",97.8%
same,"viability, T/C","second compound 0.01 µM, first compound 0.01 µM",105%
same,"viability, T/C","second compound 0.01 µM, first compound 0.0316 µM",102%
same,"viability, T/C","second compound 0.01 µM, first compound 0.1 µM",98.1%
same,"viability, T/C","second compound 0.01 µM, first compound 0.316 µM",97.6%
same,"viability, T/C","second compound 0.01 µM, first compound 1 µM",103%
same,"viability, T/C","second compound 0.0316 µM, first compound 0.00316 µM",106%
same,"viability, T/C","second compound 0.0316 µM, first compound 0.01 µM",106%
same,"viability, T/C",[5],95.2%
same,"viability, T/C",[6],95.2%
same,"viability, T/C",[7],95%
same,"viability, T/C",[8],94.5%
same,"viability, T/C","second compound 0.1 µM, first compound 0.00316 µM",99.5%
same,"viability, T/C","second compound 0.1 µM, first compound 0.01 µM",106%
same,"viability, T/C",[9],105%
same,"viability, T/C",[10],92.1%
same,"viability, T/C",[11],96.9%
same,"viability, T/C",[12],93.6%
same,"viability, T/C","second compound 0.316 µM, first compound 0.00316 µM",113%
same,"viability, T/C","second compound 0.316 µM, first compound 0.01 µM",104%
same,"viability, T/C",[13],99.6%
same,"viability, T/C",[14],96%
same,"viability, T/C",[15],99.8%
same,"viability, T/C",[16],97.8%
same,"viability, T/C","second compound 1 µM, first compound 0.00316 µM",97.7%
same,"viability, T/C","second compound 1 µM, first compound 0.01 µM",103%
same,"viability, T/C",[17],113%
same,"viability, T/C",[18],98.4%
same,"viability, T/C",[19],92.4%
same,"viability, T/C",[20],91.2%
Cn1ncnc1[C@H]1c2n[nH]c(=O)c3cc(F)cc(c23)N[C@@H]1c1ccc(F)cc1,"viability, T/C",compound 0.000316 µM,105% and 109% and 104%
same,"viability, T/C",compound 0.001 µM,103% and 106% and 95.2%
same,"viability, T/C",compound 0.00316 µM,104% and 97.3% and 107%
same,"viability, T/C",compound 0.01 µM,87.3% and 95.5% and 98.1%
same,"viability, T/C",compound 0.0316 µM,53.5% and 74.9% and 64.4%
same,"viability, T/C",compound 0.1 µM,15% and 91.9% and 12.5%
same,IC50,curve of compound,34.8 nM and > 100 nM and 43.5 nM
